Where only a bound is given, the exact number is not on record here.

This note sets out measurements from article PMC10028969 (bioRxiv, 2023).

Data set [1] deals with T. b. brucei Lister 427. As to the kind of experiment: SYBR Green viability assay with T. brucei. To be noted: Trypanosoma brucei, 72 h, read-out: T. b. brucei Lister 427 EC50 (nM) ± SD. Type of data set: cell-based.
A short description of data set [2]: HEK-293 counter-screen assay. Type of data set: cell-based. Conditions: human, HEK-293 cells.
Data set [3] has as its system T. b. brucei Lister 427. As to the kind of experiment: Time-kill assays. It is filed as cell-based. Conditions: Trypanosoma brucei, 12 h, read-out: parasite viability.
Data set [4] has as its system T. b. brucei Lister 427. As to the kind of experiment: Mouse model of T. brucei infection. It is filed as in vivo, Trypanosoma brucei brucei.

On to `N=C(N)c1ccc(OCCCCCOc2ccc(C(=N)N)cc2)cc1` [Pentamidine, pentamidine], for which the EC50 in the data set on T. b. brucei Lister 427 [1] came out at 69.6 ± 35.5 nM. Moreover, the CC50 at 48 h in data set [2] is > 4000 nM. Further, the viability at 4 µM in the data set with T. b. brucei Lister 427 [3] is 52.8%. Besides, the mouse survival in the data set with T. b. brucei Lister 427 [4] (4 mg/kg i.p. on day 2, end of the study, without parasite recrudescence) is on record as ≥ 15 day post-infection. Besides, the “parasitemia within 24 h of administration” value in the data set with T. b. brucei Lister 427 [4] (single i.p. dose 4 mg/kg on day 2 post-infection, BALB/c female mice) is reported as < 2.5 × 10^5 parasites/ml.
